Data: ChEMBL document CHEMBL2406949, “Novel chlorinated dibenzofurans isolated from the cellular slime mold, Polysphondylium filamentosum, and their biological activities” (Bioorg Med Chem, 2013)
The source made the active and inactive calls. The rule behind the calls is not given here.

Key:
[1] = Cytotoxicity against Drosophila melanogaster S2 cells assessed as inhibition of beta-galactosidase gene expression; assay type: cell-based
[2] = Cytotoxicity against Drosophila melanogaster S2 cells assessed as cell viability up to 1 uM; assay type: cell-based
[3] = tested on: S2; assay: Inhibition of heat shock-mediated activation of hs-Gal4/UAS-lacZ gene expression in Drosophila melanogaster S2 cells after 12 hrs by beta-galactosidase reporter assay; assay type: functional, cell-based
[4] = tested on: S2; assay: Inhibition of innate immune response in Drosophila melanogaster S2 cells assessed as reduction in DAP-type peptidoglycans-mediated activation of Dpt-LacZ gene expression at 1 uM after 12 hrs by beta-galactosidase reporter assay; assay type: functional, cell-based
[5] = tested on: 3T3-L1; assay: Growth inhibition of mouse 3T3L1 cells at 10 uM after 3 days by Alamar blue assay; assay type: cell-based; details: 3t3-l1, 72 h
[6] = tested on: HeLa; assay: Growth inhibition of human HeLa cells at 5 uM after 3 days by Alamar blue assay; assay type: functional, cell-based
[7] = tested on: K562; assay: Growth inhibition of human K562 cells at 2 uM after 3 days by Alamar blue assay; assay type: functional, cell-based
[8] = tested on: Dictyostelium discoideum; assay: Induction of stalk cell differentiation in Dictyostelium discoideum HM44 at […] after 2 days by phase-contrast microscopy; assay type: functional, organism-based
[9] = tested on: Dictyostelium discoideum; assay: Induction of stalk cell differentiation in Dictyostelium discoideum HM44 after 2 days by phase-contrast microscopy; assay type: functional, organism-based
[10] = tested on: Dictyostelium discoideum; assay: Induction of stalk cell differentiation in Dictyostelium discoideum HM44 at 1 nM after 2 days by phase-contrast microscopy; assay type: functional

CCCCCC(=O)c1c(OC)c(Cl)c2oc3c(Cl)c(OC)c(Cl)c(O)c3c2c1O
Activity [1]: Non-toxic | Activity [2]: Non-toxic | inhibition [3]: Dose-dependent effect | inhibition [4]: Active | growth inhibition (GI) [5]: Toxic | growth inhibition (GI) [6]: Active | growth inhibition (GI) [7]: Active | Activity [8]: inactive

CCCC(=O)c1c(OC)c(Cl)c2oc3c(Cl)c(OC)c(Cl)c(O)c3c2c1O
Activity [1]: Non-toxic | Activity [2]: Non-toxic | inhibition [3]: Dose-dependent effect | inhibition [4]: Active | growth inhibition (GI) [5]: Toxic | growth inhibition (GI) [6]: Active | growth inhibition (GI) [7]: Active | Activity [9]: Dose-dependent effect

CCCC(=O)c1c(OC)c(Cl)c2oc3c(Cl)c(OC)c(Cl)c(O)c3c2c1OC
inhibition [4]: inactive | growth inhibition (GI) [5]: Non-toxic | growth inhibition (GI) [6]: inactive | growth inhibition (GI) [7]: inactive | Activity [8]: inactive

CCCCCC(=O)c1c(O)c(Cl)c(OC)c(Cl)c1O
Activity [10]: >80%
